Laboratory results taken from ChEMBL document CHEMBL1201862, “PubChem BioAssay data set” (2004).
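Each compound was tested at five concentrations against cells in 96-well plates for 48 hours. GI50 = concentration required for 50% inhibition of growth.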 Activity calls are given as the source filed them. Cut-off read from the data, not from the text of the source: active = GI50 up to about 1.1 µM and inactive = higher.

Legend:
Experiment in all cases: growth of human tumour cells (NCI), 48 h
[1] = test system: M14
[2] = test system: SNB-75
[3] = test system: EKVX
[4] = test system: A549
[5] = test system: SF-539
[6] = test system: MDA-MB-435
[7] = test system: BT-549
[8] = test system: COLO 205
[9] = test system: TK-10
[10] = test system: CAKI-1
[11] = test system: OVCAR-5
[12] = test system: SK-MEL-28
[13] = test system: HOP-92
[14] = test system: HT-29
[15] = test system: MDA-MB-231
[16] = test system: SW-620
[17] = test system: CCRF-CEM
[18] = test system: Hs-578T
[19] = test system: Malme-3M
[20] = test system: A498

Measured: GI50

COc1cccc(-c2cccc(SC)n2)n1
inactive: [1] 24 µM | [2] 26.4 µM | [3] 17.7 µM | [4] 23.8 µM | [5] 32.1 µM | [6] 26.4 µM | [7] 31.3 µM | [8] 19.1 µM | [9] 39.2 µM | [10] 60 µM | [11] 29.2 µM | [12] 29.6 µM | [13] 19.5 µM | [14] 21.8 µM | [15] 40.4 µM | [16] 32 µM | [17] 18.2 µM

Cc1ccc(-c2cnc(NC3OC(COC(=O)c4ccccc4)C(OC(=O)c4ccccc4)C(OC(=O)c4ccccc4)C3OC(=O)c3ccccc3)s2)cc1 (stereo not given)
inactive: [1] 40.6 µM | [2] > 100 µM | [3] > 100 µM | [4] > 100 µM | [18] 82 µM | [6] > 100 µM | [19] > 100 µM | [7] > 100 µM | [8] > 100 µM | [9] > 100 µM | [11] 61.7 µM | [12] > 100 µM | [13] 20.4 µM | [14] > 100 µM | [15] > 100 µM | [16] > 100 µM

CC(C)(C)OC(=O)NC(CS(=O)(=O)O)C(=O)O (stereo not given)
inactive: [1] > 100 µM | [2] > 100 µM | [3] > 100 µM | [4] > 100 µM | [5] > 100 µM | [6] > 100 µM | [20] > 100 µM | [19] > 100 µM | [7] > 100 µM | [8] > 100 µM | [9] > 100 µM | [10] > 100 µM | [11] > 100 µM | [12] > 100 µM | [13] > 100 µM | [14] > 100 µM | [15] > 100 µM | [16] > 100 µM | [17] > 100 µM

COc1cc([N+](=O)[O-])cc2c1NC(=O)C2(C)SC (stereo not given)
inactive: [1] 52.8 µM | [2] 38.2 µM | [3] > 100 µM | [4] > 100 µM | [18] > 100 µM | [6] 53.1 µM | [20] > 100 µM | [19] > 100 µM | [7] > 100 µM | [8] > 100 µM | [9] > 100 µM | [10] > 100 µM | [11] > 100 µM | [12] > 100 µM | [14] > 100 µM | [15] > 100 µM | [16] 69 µM | [17] 40.9 µM

C=CCOC1OC(CO[Si](C)(C)C(C)(C)C)C(OCc2ccccc2)C(OCc2ccccc2)C1OCc1ccccc1 (stereo not given)
inactive: [1] 68.1 µM | [2] 21.5 µM | [3] > 100 µM | [4] 23.6 µM | [18] 45.2 µM | [6] > 100 µM | [19] 27.5 µM | [7] 65 µM | [8] > 100 µM | [9] > 100 µM | [10] 54.5 µM | [11] > 100 µM | [12] > 100 µM | [13] 38.5 µM | [14] 79.1 µM | [16] > 100 µM | [17] > 100 µM

CC1(C)C(=O)N(O)C(C)(C)N1N=O
inactive: [1] > 10 µM | [3] > 10 µM | [4] > 10 µM | [6] > 10 µM | [19] > 10 µM | [7] > 10 µM | [8] > 10 µM | [9] > 10 µM | [10] > 10 µM | [11] > 10 µM | [13] > 10 µM | [14] > 10 µM | [15] > 10 µM | [16] > 10 µM | [17] > 10 µM

NC1CC(=O)c2c1sc(Cl)c2Cl (stereo not given)
inactive: [1] > 100 µM | [2] > 100 µM | [3] > 100 µM | [4] > 100 µM | [5] > 100 µM | [6] > 100 µM | [20] > 100 µM | [19] > 100 µM | [7] > 100 µM | [8] > 100 µM | [9] > 100 µM | [10] > 100 µM | [11] > 100 µM | [12] > 100 µM | [14] > 100 µM | [15] > 100 µM | [16] > 100 µM | [17] > 100 µM

CC(C)(C)OC(=O)N/N=C(/N)Cc1ccc(Cl)cc1
inactive: [1] > 100 µM | [2] > 100 µM | [3] > 100 µM | [4] > 100 µM | [18] > 100 µM | [6] > 100 µM | [20] > 100 µM | [19] > 100 µM | [7] > 100 µM | [8] > 100 µM | [9] > 100 µM | [10] > 100 µM | [11] > 100 µM | [12] > 100 µM | [14] 73.1 µM | [15] > 100 µM | [16] > 100 µM | [17] > 100 µM

CC(Br)C(=O)NN1C2=C(Nc3ccccc31)c1cccc3cccc2c13 (stereo not given)
inactive: [1] > 100 µM | [2] 40.9 µM | [3] > 100 µM | [4] 57.9 µM | [5] > 100 µM | [18] 58.9 µM | [6] > 100 µM | [19] > 100 µM | [7] > 100 µM | [8] 75.5 µM | [9] 96.4 µM | [10] 74 µM | [11] > 100 µM | [12] > 100 µM | [14] 49.1 µM | [15] > 100 µM | [16] > 100 µM | [17] 61.4 µM

COC(=O)[C@@](C)(COC(=O)C(C)(C)C)NC(=O)OC(C)(C)C
inactive: [1] > 100 µM | [2] > 100 µM | [3] > 100 µM | [4] > 100 µM | [5] > 100 µM | [6] > 100 µM | [20] > 100 µM | [19] > 100 µM | [7] > 100 µM | [8] > 100 µM | [9] > 100 µM | [10] > 100 µM | [11] > 100 µM | [12] > 100 µM | [14] > 100 µM | [15] > 100 µM | [16] > 100 µM | [17] > 100 µM

CC(C)(C)OC(=O)N[C@H]1CC2(C=C(Cl)C(=O)C(Cl)=C2)OC1=O
inactive: [1] 14.4 µM | [2] 20.5 µM | [3] 15.2 µM | [4] 38.3 µM | [5] 21.1 µM | [18] 26.4 µM | [20] 4.18 µM | [19] 11.5 µM | [7] 16 µM | [8] 3.97 µM | [9] 17.5 µM | [10] 13.5 µM | [11] 19.5 µM | [12] 11.4 µM | [13] 16.9 µM | [14] 11.5 µM | [15] 17.1 µM | [16] 4.33 µM | [17] 1.38 µM

COc1ccccc1NC(=S)NNC(=O)c1cc(-c2ccccc2)nc2ccccc12
inactive: [1] 11.9 µM | [2] 18.7 µM | [4] 8.55 µM | [5] 11.5 µM | [18] 16.6 µM | [6] 3.18 µM | [19] 4.69 µM | [7] 8.26 µM | [8] 11.8 µM | [9] 26.5 µM | [10] 10.7 µM | [11] 16.4 µM | [12] 10.4 µM | [13] 12.8 µM | [14] 21.9 µM | [15] 10 µM | [16] 7.76 µM | [17] 2.08 µM

O=S(=O)(O)c1ccc2cc(/N=N/c3c(O)ccc4ccccc34)ccc2c1
inactive: [1] > 100 µM | [2] > 100 µM | [3] > 100 µM | [4] > 100 µM | [5] > 100 µM | [18] 69.2 µM | [6] > 100 µM | [20] > 100 µM | [19] 82.6 µM | [7] > 100 µM | [8] > 100 µM | [9] > 100 µM | [10] > 100 µM | [11] > 100 µM | [13] > 100 µM | [14] > 100 µM | [16] > 100 µM | [17] > 100 µM

CC(=O)O[C@H]1C(=O)N(c2cc3c4ccccc4ccc3c3ccccc23)[C@@H]1c1ccccc1
inactive: [1] 4.38 µM | [2] 2 µM | [3] 14.6 µM | [4] 4.56 µM | [5] 3.89 µM | [18] 5.16 µM | [6] 1.61 µM | [20] 21.8 µM | [19] 5.38 µM | [8] 4.24 µM | [9] 12.8 µM | [10] 4.62 µM | [11] 15.7 µM | [12] 10.4 µM | [13] 17.5 µM | [14] 2.64 µM | [15] 10.9 µM | [17] 3.76 µM

COC(=O)[C@@]12CC[C@]1(C(=O)OC)C1C(C)=CC(=O)O[C@@]12C (stereo not given in full)
inactive: [1] > 100 µM | [2] > 100 µM | [3] > 100 µM | [4] > 100 µM | [5] > 100 µM | [18] > 100 µM | [6] > 100 µM | [19] > 100 µM | [7] > 100 µM | [8] > 100 µM | [9] > 100 µM | [11] > 100 µM | [12] > 100 µM | [13] > 100 µM | [14] > 100 µM | [15] > 100 µM | [16] > 100 µM | [17] > 100 µM
